Measurements published in patent US9840507B2, “5,6-dihydro-imidazo[1,2-a]pyrazin-8-ylamine derivatives useful as inhibitors of beta-secretase (BACE)” (Janssen Pharmaceutica, NV, priority 2010, dated 2017).
Where two headings read alike, the source gives them in different places.

Tests used:
[1] = target: T1, recombinant BACE1 protein (Homo sapiens, UniProt P56817); test: Biochemical FRET based assay; conditions: recombinant BACE1 1 μg/ml, 10 μm substrate, 120 minutes, room temperature, pH 5.0; for IC50: read-out: Biochemical FRET based assay pIC50 (converted)
T1 construct: recombinant BACE1 protein in a final concentration of 1 μg/ml
From the text: This assay is a Fluorescence Resonance Energy Transfer Assay (FRET) based assay. The substrate for this assay is an APP derived 13 amino acids peptide that contains the ‘Swedish’ Lys-Met/Asn-Leu mutation of the amyloid precursor protein (APP) β-secretase cleavage site. This substrate also contains two fluorophores: (7-methoxycoumarin-4-yl) acetic acid (Mca) is a fluorescent donor with excitation wavelength at 320 nm and emission at 405 nm and 2,4-Dinitrophenyl (Dnp) is a proprietary quencher acceptor. […] Upon cleavage by BACE1, the fluorophore Mca is separated from the quenching group Dnp, restoring the full fluorescence yield of the donor. The increase in fluorescence is linearly related to the rate of proteolysis (Koike H et al. J. Biochem. 1999, 126, 235-242).
Briefly in a 384-well format recombinant BACE1 protein in a final concentration of 1 μg/ml is incubated for 120 minutes at room temperature with 10 μm substrate in incubation buffer (40 mM Citrate buffer pH 5.0, 0.04% PEG, 4% DMSO) in the absence or presence of compound. Next the amount of proteolysis is directly measured by fluorescence measurement at T=0 and T=120 (excitation at 320 nm and emission at 405 nm).
(§1) LC=Median of the low control values
=Low control: Reaction without enzyme
(§2) HC=Median of the High control values
=High Control: Reaction with enzyme % Effect=100−[(sample−LC)/(HC−LC)*100] % Control=(sample/HC)*100% % Controlmin=(sample−LC)/(HC−LC)*100

[2] = tested on: Aβtotal produced and secreted into the medium of human neuroblastoma SKNBE2 cells; test: Cellular αlisa assay in SKNBE2 cells, Aβtotal; format: cell-based; conditions: for IC50: Homo sapiens, SKNBE2, 18 h, read-out: Cellular αlisa assay in SKNBE2 cells Aβtotal pIC50 (converted)
Experimental: (§3) In two αlisa assays the levels of Aβtotal and Aβ42 produced and secreted into the medium of human neuroblastoma SKNBE2 cells are quantified. The assay is based on the human neuroblastoma SKNBE2 expressing the wild type Amyloid Precursor Protein (hAPP695). The compounds are diluted and added to these cells, incubated for 18 hours and then measurements of Aβ42 and Aβtotal are taken. Aβtotal and Aβ42 are measured by sandwich αlisa. αlisa is a sandwich assay using biotinylated antibody AbN/25 attached to streptavidin coated beads and antibody Ab4G8 or cAb42/26 conjugated acceptor beads for the detection of Aβtotal and Aβ42 respectively. In the presence of Aβtotal or Aβ42, the beads come into close proximity. The excitation of the Donor beads provokes the release of singlet oxygen molecules that triggers a cascade of energy transfer in the Acceptor beads, resulting in light emission. Light emission is measured after 1 hour incubation (excitation at […] and emission at 615 nm).
(§4) A best-fit curve is fitted by a minimum sum of squares method to the plot of % Controlmin versus compound concentration.
as §1
(§5) =Low control: cells preincubated without compound, without biotinylated Ab in the αlisa
as §2
(§6) =High Control: cells preincubated without compound % Effect=100−[(sample−LC)/(HC−LC)*100] % Control=(sample/HC)*100% % Controlmin=(sample−LC)/(HC−LC)*100

[3] = tested on: Aβ42 produced and secreted into the medium of human neuroblastoma SKNBE2 cells; test: Cellular αlisa assay in SKNBE2 cells, Aβ42; format: cell-based; conditions: for IC50: Homo sapiens, SKNBE2, 18 h, read-out: Cellular αlisa assay in SKNBE2 cells Aβ42 pIC50 (converted)
Experimental: as §3, §4, §1, §5, §2, §6

[4] = SKNBE2 cells expressing hAPP695, incubated for 18 hours

T1 sequence (P56817 46-501): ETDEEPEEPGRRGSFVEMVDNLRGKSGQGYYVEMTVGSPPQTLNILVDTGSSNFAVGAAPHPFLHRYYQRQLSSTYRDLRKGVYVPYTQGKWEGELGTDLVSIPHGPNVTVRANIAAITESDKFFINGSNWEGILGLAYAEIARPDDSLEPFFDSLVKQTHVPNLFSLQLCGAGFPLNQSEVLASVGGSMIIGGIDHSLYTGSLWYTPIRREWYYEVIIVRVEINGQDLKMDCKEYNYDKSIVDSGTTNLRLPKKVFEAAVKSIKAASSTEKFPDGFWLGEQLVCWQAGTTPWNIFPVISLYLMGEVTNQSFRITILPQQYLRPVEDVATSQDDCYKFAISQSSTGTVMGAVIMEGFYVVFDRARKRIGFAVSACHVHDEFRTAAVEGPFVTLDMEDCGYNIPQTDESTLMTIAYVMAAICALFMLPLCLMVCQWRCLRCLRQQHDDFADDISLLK

Compound | IC50 [1] [nM] | IC50 [2, 4] [nM] | IC50 [3, 4] [nM] | IC50 [2] [nM] | IC50 [3] [nM] | Cellular αlisa assay in SKNBE2 cells Aβtotal pIC50 [2, 4] | Cellular αlisa assay in SKNBE2 cells Aβ42 pIC50 [3, 4] | Biochemical FRET based assay pIC50 [1]
C[C@@]1(c2cc(NC(=O)c3ncc(Cl)cc3Cl)ccc2F)Cn2cc(C(F)(F)F)nc2C(N)=N1 [Compound 25] | 46.8 | 17 | 21.9 |  |  |  |  | 
Cc1nc(C(=O)Nc2ccc(F)c([C@]3(C)Cn4cc(C(F)(F)F)nc4C(N)=N3)c2)c(C)o1 [Compound 41] | 178 | 117 | 120 |  |  |  |  | 
C[C@@]1(c2cc(NC(=O)c3ccc(C#N)cn3)ccc2F)Cn2cc(C(F)F)nc2C(N)=N1 [Compound 49] | 97.7 | 9.33 | 8.51 |  |  |  |  | 
C[C@@]1(c2cc(NC(=O)c3ccc(Cl)cn3)ccc2F)Cn2cc(C(F)F)nc2C(N)=N1 [Compound 50] | 58.9 | 8.13 | 7.41 |  |  |  |  | 
COc1cnc(C(=O)Nc2ccc(F)c([C@]3(C)Cn4cc(Br)nc4C(N)=N3)c2)cn1 [Compound 55] | 112 | 32.4 | 31.6 |  |  |  |  | 
CC1(c2cccc(-c3cc(Cl)cc(Cl)c3)c2)Cn2ccnc2C(N)=N1 (racemic) [Compound 3, rac-6-(3′,5′-dichloro-biphenyl-3-yl)-6-methyl-5,6-dihydro-imidazo[1,2-a]pyrazin-8-ylamine] | 26900 |  |  | 7080 | 7940 |  |  | 
C[C@@]1(c2cccc(-c3cc(Cl)cc(Cl)c3)c2)Cn2ccnc2C(N)=N1 [Compound 5, (R)-6-(3′,5′-dichloro-biphenyl-3-yl)-6-methyl-5,6-dihydro-imidazo[1,2-a]pyrazin-8-ylamine] | 14100 |  |  | 5010 | 5890 |  |  | 
C[C@@]1(c2cc(NC(=O)c3ccc(F)cn3)ccc2F)Cn2cc(Br)nc2C(N)=N1 [Compound 54] | 75.9 | 35.5 | 32.4 |  |  |  |  | 
CC1(c2cccc(NC(=O)c3ccc(Cl)cn3)c2)Cn2ccnc2C(N)=N1 (racemic) [Compound 6, rac-5-chloro-pyridine-2-carboxylic acid [3-(8-amino-6-methyl-5,6-dihydro-imidazo[1,2-a]pyrazin-6-yl)-phenyl]-amide] | 331 | 69.2 | 70.8 |  |  |  |  | 
COc1cnc(C(=O)Nc2ccc(F)c([C@]3(C)Cn4cc(Cl)nc4C(N)=N3)c2)cn1 [Compound 52] | 97.7 | 38 | 40.7 |  |  |  |  | 
Cc1nc(C(=O)Nc2ccc(F)c([C@]3(C)Cn4ccnc4C(N)=N3)c2)co1 [Compound 43] | 186 | 42.7 | 38 |  |  |  |  | 
C[C@@]1(c2cc(NC(=O)c3ccc(F)cn3)ccc2F)Cn2cc(C#N)nc2C(N)=N1 [Compound 56, (R)—N-{3-[8-amino-2-cyano-6-methyl-5,6-dihydroimidazo[1,2-a]pyrazin-6-yl]-4-fluorophenyl}-5-fluoropyridine-2-carboxamide] | 83.2 | 21.9 | 20.9 |  |  |  |  | 
Cc1nc(C(=O)Nc2ccc(F)c([C@]3(C)Cn4ccnc4C(N)=N3)c2)c(C)o1 [Compound 46] | 380 | 83.2 | 89.1 |  |  |  |  | 
CC1(c2cccc(-c3cncnc3)c2)Cn2ccnc2C(N)=N1 (racemic) [Compound 1, rac-6-methyl-6-(3-pyrimidin-5-yl-phenyl)-5,6-dihydro-imidazo[1,2-a]pyrazin-8-ylamine] | 9770 | 174 | 191 |  |  |  |  | 
C[C@@]1(c2cc(NC(=O)c3ccc(F)cn3)ccc2F)Cn2c(Cl)cnc2C(N)=N1 [Compound 58] | 75.9 | 20 | 20 |  |  |  |  | 
C[C@@]1(c2cc(NC(=O)c3ccsn3)ccc2F)Cn2ccnc2C(N)=N1 [Compound 45] | 427 | 67.6 | 66.1 |  |  |  |  | 
NC1=NC(c2cc(NC(=O)c3ccc(F)cn3)ccc2F)(C(F)F)Cn2ccnc21 (stereo not drawn) [Compound 28] | 295 |  |  |  |  | 6.19 | 6.17 | 
COc1cncc(-c2cccc(C3(C)Cn4ccnc4C(N)=N3)c2)c1 (racemic) [Compound 2, rac-6-[3-(5-methoxy-pyridin-3-yl)-phenyl]-6-methyl-5,6-dihydro-imidazo[1,2-a]pyrazin-8-ylamine] |  | 2340 | 2140 |  |  |  |  | >4.52
NC1=NC(c2cc(NC(=O)c3ccc(F)cn3)ccc2F)(C(F)F)Cn2ccnc21 (stereo not drawn) [Compound 29] | > 30200 |  |  |  |  | <5 | <5 | 
C[C@@]1(c2cc(NC(=O)c3ncc(Cl)cc3Cl)ccc2F)Cn2ccnc2C(N)=N1 [Compound 19] | 49 | 9.77 | 11 |  |  |  |  | 
CCOc1cnc(C(=O)Nc2ccc(F)c([C@]3(C)Cn4ccnc4C(N)=N3)c2)cn1 [Compound 23] | 457 | 37.2 | 25.1 |  |  |  |  | 
Cc1nc(C(=O)Nc2ccc(F)c([C@]3(C)Cn4ccnc4C(N)=N3)c2)c(C(F)(F)F)o1 [Compound 44] | 380 | 93.3 | 95.5 |  |  |  |  | 
